# Measured values as given in patent publication US11629192B2, “Methods and pharmaceutical compositions for the treatment of diseases mediated by the NRP-1/OBR complex signaling pathway” (INSERM (Institut National de la Sante et de la Recherche …, priority 2014, dated 2023).
# “Also recorded” adds a separate entry of the source.
# Tests used:
# [1] = tested on: T47D-NRP-1-RFP xenografts; assay: Transcriptome of T47D-NRP-1-RFP xenografts treated or not with Leptin; format: in vivo, Nude mice; settings: Leptin treated vs not treated T47D-NRP-1-RFP xenografts
# Excerpt: Although the Chip-Seq was realized on MDA-MB-231, we opted to realize a transcriptome of T47D overexpressing NRP-1-RFP xenografts compared to T47D-wt and T47D-RFP treated or not with Leptin regarding to the lymph node infiltration induced by the NRP-1 overexpression and its increase by Leptin treatment. To determine any direct association of NRP-1 in gene expression, we realize first a global analysis of transcriptome of T47D-NRP-1 xenografts treated and not treated with Leptin (n=8) compared to T47D-wt and T47D-RFP xenografts treated and not treated with Leptin (n=8). […] The analysis of gene expression in Leptin treated T47D-NRP-1-RFP compared to no treated xenografts, highlighted 66 genes with 31 genes enriched in the Chip-Seq of MDA-MB-231 and that were not detected in T47D-wt and T47D-RFP treated or not with Leptin. Only 4 genes enriched in the Chip-Seq contained peaks associated to transcription factor binding site such as FUS (fused in sarcoma, fold increase 1.79; p=0.045) for Pol2 and C12orf45 (chromosome 12 open reading frame, fold increase 1.29; p=0.03) for CTCF. […] Since Plasminogen Activator Inhibitor 1 (PAI.1) related to SERPINE1 gene has been associated to breast cancer invasion and metastasis, we evaluated PAI.1 expression by immunostaining in T47D-NRP-1-RFP xenografts compared to T47D-wt and T47D-RFP.
# [2] = tested on: MDA-MB-231 and T47D-NRP-1; assay: In vitro cell proliferation (MTT, (H3)-thymidine, BrdU incorporation); format: cell-based, human; settings: Leptin stimulation
# Excerpt: First MBA-MB-231 and T47D breast cancer cells line were selected for their high and undetectable NRP-1 expression respectively and the expression of Leptin receptor (OBR). In order to investigate NRP-1 and Leptin association in breast cancer cell line migration, we proceeded to NRP-1 expression silencing in MDA-MB-231 using either siRNA or shRNA approaches or NRP-1 overexpression in T47D. […] In contrast Leptin induced MDA-MB-231 migration that was decreased in siNRP-1 conditions. The in vitro data were confirmed in vivo by MDA-MB-231 and T47D xenografts in Nude mice. Modulation of NRP-1 expression either by shRNA silencing in MDA-MB-231 or by overexpression in T47D induced an increase of proliferation and a decrease of lymph node infiltration by MDA-MB-231-shNRP-1 and a decrease of proliferation and an increase of lymph node infiltration by T47D-NRP-1-RFP in mice treated with Leptin.
# This observation can lead to conclude that NRP-1 induces tumor growth independently of Leptin/OBR pathway and that NRP-1/OBR complex signaling is in a favor of cell movement and migration induction. The implication of Leptin in tumor growth and metastasis has already been studied but the published data are contradictory depending on cancer cell type and model studies. […] In our case, in vitro leptin implication in cell growth has been evaluated by different methods. […]
substance,measurement,setting,value
"Leptin: small non glycosylated protein, ligand of OBR","C12orf45 gene expression, fold increase",[1]; p=0.03,1.29 fold
same,"FUS gene expression, fold increase",[1]; p=0.045,1.79 fold
same,cell proliferation,[2],decreased; also recorded: unable to observe; also recorded: not able to observe a significant increase
